Measurements as given in patent US20220396593A1, “SYNTHESIS AND CHARACTERIZATION OF VANADIUM COMPLEXES” (priority 2021, published 2022).

Key:
[1] = Solubility of vanadium complex solid in water / PBS buffer
[2] = Stability of vanadium complexes in water and PBS buffer (NMR, pH over time); details: pH adjusted to 7.4 where needed
[3] = system: oncolytic RNA viruses including vesicular stomatitis virus (VSV) and Measles; details: cited from earlier work

Row | Compound | Stability in solution and need for pH adjustment [2] | Effect on replication and spread of oncolytic RNA viruses [3] | further results
1 | K3[(VO2)2(C6H6O7)(C6H5O7)]×3 H2O [CDOS150] | the solutions did require initial pH adjustment | – | pH up to which the solid dissolved ([1]; solid dissolved into water and phosphate buffered saline (PBS) buffer): ≤ 5
2 | Na3[(V^IVO)2(C6H4O7)(C6H5O7)] [CDOS155] | limited at pH 7.4 but similar in water or PBS but required continuous pH adjustment | – | Solubility ([1]; in water): soluble in water; pH up to which the solid dissolved ([1]; solid mixed with PBS buffer): ≤ 5
3 | O=S(=O)([O-])[O-].[O]=[V+2] [vanadyl sulfate] | – | improve the replication and spread of oncolytic RNA viruses | –
4 | [O]=[V]([O-])([O-])[O-] [orthovanadate] | – | improve the replication and spread of oncolytic RNA viruses | –
5 | Cc1occc(=O)c1[O-].Cc1occc(=O)c1[O-].[O]=[V+2] [bismaltolatoxovanadate (BMOV), bismaltolatoxovanadate] | – | improve the replication and spread of oncolytic RNA viruses | –
